Where a name gives a salt, the structure may show the parent alone. Read-outs that look alike come from different tables or passages of the source.
What was measured:
[1] = target: T1, human 5-HT6 receptor (Homo sapiens, UniProt P50406); test: 5-HT6 receptor binding assay ([3H]-LSD, SPA, membranes of transfected HEK293 cells)
T1 construct: expressed in transfected cells; host or cells: HEK293 (G-418 selected), membrane preparation

[2] = target: T1, human 5-HT6 receptor; test: 5-HT6 intrinsic activity assay (inhibition of 5-HT induced increase in cAMP); type: cell-based; conditions: read-out: Antagonist potency at the h5-HT6 receptor, IC50,corr
Method: (b) 5-HT6 Intrinsic Activity Assay
Briefly, HEK293/5-HT6 cells were seeded in polylysine coated 96-well plates at a density of 25,000/well and grown in DMEM (Dulbecco's Modified Eagle Medium) (without phenol-red) containing 5% dialyzed Foetal Bovine Serum for 48 h at 37° C. in a 5% CO2 incubator. The medium was then aspirated and replaced by 0.1 ml assay medium (Hanks Balance Salt Solution containing 20 mM HEPES, 1.5 mM isobutylmethylxanthine and 1 mg/ml bovine serum albumin). After addition of test substances, 50 μl dissolved in assay medium, the cells were incubated for 10 min at +37° C. in a 5% CO2 incubator. The medium was again aspirated and the cAMP content was determined using a radioactive cAMP kit (Amersham Pharmacia Biotech, BIOTRAK RPA559).

T1 sequence (P50406 whole entry): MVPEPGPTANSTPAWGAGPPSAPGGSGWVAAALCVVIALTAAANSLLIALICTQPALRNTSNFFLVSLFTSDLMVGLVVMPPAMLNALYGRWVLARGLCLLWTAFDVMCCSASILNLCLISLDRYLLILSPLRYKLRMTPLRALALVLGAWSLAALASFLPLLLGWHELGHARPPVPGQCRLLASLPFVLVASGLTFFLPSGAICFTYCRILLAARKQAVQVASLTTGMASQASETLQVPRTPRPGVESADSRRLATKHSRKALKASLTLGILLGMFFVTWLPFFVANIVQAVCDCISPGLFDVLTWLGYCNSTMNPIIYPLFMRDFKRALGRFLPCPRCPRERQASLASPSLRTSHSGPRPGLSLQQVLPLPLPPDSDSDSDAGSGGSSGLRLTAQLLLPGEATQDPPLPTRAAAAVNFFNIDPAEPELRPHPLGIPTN

With NCCc1c[nH]c2ccc(O)cc12 [Example 5-HT, 5-hydroxytryptamine, reference compound] the Hill coefficient ([1]; inter assay, over three experiments) was 0.94 (SD 0.09).

Work on O=S(=O)(c1ccccc1)n1cc2c3c(cccc31)CNCC2 [Example 15, 1-(Phenylsulfonyl)-3,4,5,6-tetrahydro-1H-azepino[5,4,3-cd]indole] yielded an IC50 [2] of 8 nM.

With CN1CCc2cccc3c2c(cn3S(=O)(=O)c2ccccc2)C1 [Example 13, 4-Methyl-1-(phenylsulfonyl)-3,4,5,6-tetrahydro-1H-azepino[3,4,5-cd]indole hydrochloride] the Ki [1] was 6 nM.

For CCN1Cc2cccc3c2c(cn3S(=O)(=O)c2ccccc2)C1 [Example 5, 4-Ethyl-1-(phenylsulfonyl)-1,3,4,5-tetrahydropyrrolo[4,3,2-de] isoquinoline trifluoroacetate], the Ki ([1]; read-out: Binding affinity (Ki) at the h5-HT6 receptor) was 21 nM.

Work on O=S(=O)(c1ccccc1)n1cc2c3c(cccc31)CN(Cc1ncc[nH]1)C2 [Example 3, 4-(1H-Imidazol-2-ylmethyl)-1-(phenylsulfonyl)-1,3,4,5-tetrahydropyrrolo[4,3,2-de]isoquinoline bis(trifluoroacetate)] yielded an IC50 [2] of 28 nM.
